# Reference: publication PMC12466456, “Isolation, Characterization, Antioxidant and Anticancer Activities of Compounds from Erythrina caffra Stem Bark Extract” (Antioxidants, 2025)
# Read-outs that look alike come from different tables or passages of the source.
# Key:
# HeLa cells [1] = test: MTT cytotoxicity assay, HeLa; assay type: cell-based, human; conditions: for IC50: Homo sapiens, HeLa
# Description: (§1) Cytotoxicity was evaluated using the MTT (3-(4,5-dimethylthiazol-2-yl)-2,5-diphenyltetrazolium bromide) assay to measure cell viability after treatment with the plant extracts. This assay measures the percentage viability of a cell population by monitoring the ability of the NAD(P)H-dependent oxidoreductase enzyme system in live cells to reduce MTT to formazan, an insoluble purple form of the dye. […] The medium was replaced with fresh medium, and the extracts were added in varying concentrations (50–250 µg/mL). The plates were incubated at 37 °C in 5% CO2 for 48 h. At the end of the incubation period, the spent medium was discarded and replaced with 100 µL fresh medium containing 10 µL (5 mg/mL in PBS) MTT reagent. The cells were then incubated for an additional 4 h. The MTT/medium was subsequently removed, and 100 μL DMSO was added to solubilize the formazan dye product. Absorbance at 570 nm was assessed using a microplate reader (Vacutec, Hamburg, Germany). Cell viability was calculated as in Equation (2).(2) Cell viability (%)=At/Ac×100 where At = absorbance of test or treated cells and Ac = absorbance of control or untreated cells.
# MCF-7 cells [2] = test: MTT cytotoxicity assay, MCF-7; assay type: cell-based, human; conditions: for IC50: Homo sapiens
# Description: as §1
# HEK293 cells = test: MTT cytotoxicity assay, HEK293; assay type: cell-based; conditions: Homo sapiens
# Description: as §1
# [3] = DPPH radical scavenging assay; assay type: biochemical; conditions: crude extracts/ascorbic acid 50-250 µg/mL, 30 min, 517 nm
# Description: The antioxidant potential of the crude extracts was evaluated by measuring their DPPH radical scavenging activity following the protocol described by Bukhari et al.. […] A control well containing 5% dimethyl sulfoxide (DMSO) and DPPH was run concurrently. The samples were incubated in the dark for 30 min at room temperature. The absorbance was read against a DMSO blank at a wavelength of 517 nm using a microplate reader.
# MCF-7 cells [4] = test: AO/EB dual staining for apoptosis, MCF-7; assay type: cell-based, human; conditions: 48 h; 250 µg/mL (method) or 100 µg/mL (Figure 3 legend)
# Description: A qualitative assessment of apoptosis induction in cancer cells was conducted by the acridine orange-ethidium bromide (AO/EB) dual staining method, as described previously [13, 14]. Confluent cells (4.0 × 10^3 cells/well) were trypsinized and seeded into 48-well plates and incubated for 24 h at 37 °C in 5% CO2. Subsequently, the spent medium was replaced, and cells were incubated for a further 48 h with the extracts or standard drug (5-fluorouracil) at a concentration of 250 µg/mL. The cells were rinsed twice with cold PBS, and 15 µL of the AO/EB dye mixture (0.1 mg/mL: 0.1 mg/mL) was added, and the cells were incubated for 5 min at ambient temperature. The cells were washed with PBS to remove excess dye and then visualized under an Olympus fluorescence microscope (Wirsam Scientific and Precision Equipment Ltd., Johannesburg, South Africa). Images were captured using a CC12 fluorescence camera and Analysis Five Software (Olympus Soft Imaging Solutions, Olympus, Tokyo, Japan) at 200× magnification.
# MCF-7 cells [5] = test: Muse MultiCaspase assay, MCF-7; assay type: cell-based, human; conditions: 100 µg/mL, 48 h, Figure 5b
# Description: (§2) The multicaspase assay was performed using the Muse MultiCaspase kit, which can detect the presence of multiple caspases (caspase-1, 3, 4, 5, 6, 7, 8, and 9). The kit utilizes a derivatized VAD peptide that can detect the activity of multiple caspases and a dead cell dye that provides information on membrane integrity or cell death. Cells were seeded into 48-well plates at a density of 1.0 × 10^5 cells/well and allowed to attach over 24 h. Subsequently, 100 µg/mL of the isolated fractions were added, and the cells were incubated for 48 h. The cells were then trypsinized and reconstituted in 1 × caspase buffer. Approximately 5 μL of the Muse™ MultiCaspase working solution was added to 50 μL of cell suspension and incubated at 37 °C for 30 min. Thereafter, 150 μL of 7-AAD working solution was added, mixed thoroughly, and analyzed using the Muse™ cell analyzer (Luminex Corporation, Austin, TX, USA).
# HeLa cells [6] = test: Muse MultiCaspase assay, HeLa; assay type: cell-based, human; conditions: 100 µg/mL, 48 h, Figure 5a
# Description: as §2
# [7] = isolated compounds/fractions, read-out: IC50 HeLa (isolated compounds)
# [8] = MCF7, MTT, isolated compounds/fractions, read-out: IC50 MCF-7 (isolated compounds)
# [9] = HEK293, isolated compounds/fractions, read-out: IC50 HEK293 (isolated compounds)
# [10] = MTT, isolated compounds/fractions
Compound,IC50 (HeLa cells [1]; [7]) [µg/mL],IC50 (MCF-7 cells [2]; [8]) [µg/mL],IC50 (HEK293 cells; [9]) [µg/mL],IC50 MCF-7 (isolated compounds) (MCF-7 cells [2]; [10]) [µg/mL],caspase activation in MCF-7 cells (MCF-7 cells [5]),caspase activation in HeLa cells (HeLa cells [6]),other results
"CCCCCCCCCCCCCCCCCCCCCO [1-Heneicosanol, 1-heneicosanol]",4010,1980,372,,,,
"O=C1O[C@H]([C@@H](O)CO)C(O)=C1O [Ascorbic acid, ascorbic acid]",,,,,,,IC50 DPPH radical scavenging [3]: 84.37 µg/mL
"O=c1[nH]cc(F)c(=O)[nH]1 [Compound 5-FU, 5-Fluorouracil, reference compound]",,,,,,,"IC50 (HeLa cells [1]; 48 h, read-out: IC50 HeLa (crude extracts)): 510 µg/mL; IC50 (MCF-7 cells [2]; MCF7, 48 h, MTT, 48 h, read-out: IC50 MCF-7 (crude extracts)): 148 µg/mL; AO/EB fluorescence / apoptosis in MCF-7 cells (MCF-7 cells [4]): red fluorescence; IC50 (HEK293 cells; 48 h, HEK293 served as normal cells, read-out: IC50 HEK293 (crude extracts)): 54.5 µg/mL"
"CCCCCCCCCCCCCCOC(=O)/C=C/c1ccc(OC)c(O)c1 [Tetradecyl isoferulate, tetradecyl isoferulate]",170,124,141,123.6174,pronounced caspase activation potential,pronounced caspase activation potential,
CCCCCCCCCCCCCCCCCCCCCCCCCCOC(=O)/C=C/c1ccc(OC)c(O)c1 [n-Hexacosanyl isoferulate],147,58.8,316,58.84,pronounced caspase activation potential,pronounced caspase activation potential,"IC50 HeLa (isolated compounds) (HeLa cells [1]; isolated compounds/fractions): 146.63 µg/mL; IC50 MCF-7 (isolated compounds) (MCF-7 cells [2]; MTT, isolated compounds/fractions, listed as n-hexacosanyl isoferulate): 58.8 µg/mL"
